Reference: patent US20150182434A1, “COSMETIC USE OF NAPTHOIC ACID DERIVATIVES” (Avon Products, Inc., priority 2013, published 2015)

Biological target: T1, recombinant human (rh) KLK5 (Homo sapiens, UniProt Q9Y337)
T1 construct: purchased R&D Systems 1108-SE
T1 sequence (Q9Y337 23-293): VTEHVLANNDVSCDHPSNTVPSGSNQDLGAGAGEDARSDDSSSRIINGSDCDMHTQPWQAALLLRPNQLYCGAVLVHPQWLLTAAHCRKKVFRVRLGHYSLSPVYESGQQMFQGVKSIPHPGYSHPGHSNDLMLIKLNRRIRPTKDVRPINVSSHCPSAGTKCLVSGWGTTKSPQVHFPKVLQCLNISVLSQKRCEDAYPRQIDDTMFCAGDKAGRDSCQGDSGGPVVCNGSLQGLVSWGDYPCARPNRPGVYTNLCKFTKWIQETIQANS
Assay: Enzymatic activity of KLK5 (fluorogenic peptide substrate Boc-V-P-R-AMC)
Type: biochemical
Conditions: FIG. 1; for KLK5 activity compared to that of salicylic acid: rhKLK5, rate of enzyme activity relative to salicylic acid
Source text: In the stratum corneum, skin's outermost layer, cell-to-cell cohesion depends primarily on proteins known as the corneodesmosomes. During skin remodeling and renewal dead cells are shed from the skin surface by the action of native proteases that break down the corneodesmosomes. […] Hypothetically, up-regulation of the activities of these proteases using different active candidates could be utilized to increase the rate of shedding of dead skin, thus providing a natural means for skin exfoliation. To this end, the enzymatic activity of a member of the KLK family, recombinant human (rh) KLK5, was monitored following pre-incubation with actives and measuring the rate of peptide bond cleavage of a synthetic substrate.
Enzymatic activity of KLK5 was measured by incubating recombinant human (rh) KLK5 protease (R&D Systems, Cat No. 1108-SE) with a specific fluorogenic peptide substrate Boc-V-P-R-AMC (R& D Systems, Cat No. ES011). The substrate is conjugated to a quenched fluorescent group. Upon cleavage of the adjacent peptide bond, the fluorescent signal is released, resulting in a measureable emission at […] when excited at 340 nm wavelength. Increase in fluorescence reading indicates an increase in rhKLK5 activity. The test compounds were reacted with recombinant rhKLK5 protease for 60 seconds followed by addition of Boc-V-P-R-AMC Fluorogenic Peptide Substrate. After 60 seconds of incubation, fluorescence was measured at 340 nm (Excitation wavelength) and 485 nm (Emission wavelength) every 1 minute for 7 minutes. Rate (kinetics) of enzyme activity was calculated as follows: Rate of enzyme activity=Change of fluorescent reading (after background correction)/Change of reaction time (min). Percent change of activity due to a test compound was calculated by comparing rate of enzyme activity in the presence of the test compound to that of a control without the test compound and statistical significance was calculated using a t-test. Additionally, the rate of activity of the compounds was compared to that of salicylic acid.

Compound | KLK5 activity compared to that of salicylic acid | percentage of KLK5 activity relative to salicylic acid (salicylic acid as the benchmark) [%]
O=C(O)c1ccc2ccccc2c1O [1-hydroxy-2-napthoic acid] | substantially less KLK5 activity than salicylic acid | –
O=C(O)c1c(O)ccc2ccccc12 [2-hydroxy-1-napthoic acid] | substantially less KLK5 activity than salicylic acid | –
O=C(O)c1cc2ccccc2cc1O [3-hydroxy-2-napthoic acid] | potent stimulator of KLK5, as it is increased beyond salicylic acid | –
O=C(O)c1ccccc1O [salicylic acid] | – | 100
